Assay: GC/MS analysis of incorporation of methyl jasmonate into nano carriers (inclusion complexes)
Format: physicochemical
Details: determined by GC
Method: The following analysis were performed with GC/MS (gas chromatography/mass spectrometry), showing possible breakages of the elements that are included in the jasmonate family and also inclusion of such elements in several nano carriers such as dendrimers and CDs for comparison of analytical behavior. Used dendrimers was PAMAM (poly amide amine). Cyclodextrin was used as β-cyclodextrin.
Preparation of inclusion complexes was performed according to Rajewski R A, Stella V J pharmaceutical applications of cyclodextrins. 2. In delivering the in vivo drug. J. Pharm Sci 1996; 85 (11):1142-69. Inclusion compounds, or nano/micro carriers with jasmonates, can be prepared through mixing a different concentration from zero from one or more jasmonate compounds with up to a molar proportion equivalent to the host molecule. The preparation process also includes mixing the compound resulting from metabolism of the element of the jasmonate family in a water solution or other solution with acceptable pharmaceutical salts. The resulting solution is agitated until total dissolution of components in solvent. The mixing time is of some hours until the mixture reaches thermodynamic balance. […]

percentage regarding incorporation of methyl jasmonate within PAMAM dendrimers (carrier PAMAM (poly amide amine) dendrimers): around 95% | percentage regarding incorporation of methyl jasmonate within β-CD (carrier β-cyclodextrin): 98-99%
SMILES: CC/C=C\CC1C(=O)CCC1CC(=O)OC (centres unmarked) [methyl jasmonate]

— patent US20140220132A1, “Pharmaceutical Formulation Comprising Compounds of the Jasmonate Family” (priority 2011, published 2014)
